Data published in patent US20250042922A1, “KRAS MODULATING COMPOUNDS” (priority 2023, published 2025).
pEC50: −log10 of the molar value.

Columns and labels:
[1] = system: cellular pERK in MIA-PaCa-2 (KRAS-G12C) cells; experiment: Cell based pERK assay, MIA-PaCa-2; conditions: Homo sapiens; MIA-PaCa-2 (KRAS-G12C), 2 hours incubation, HTRF phospho-ERK1/2; read-out: MIAPaCa2 pERK EC50
Description: (§1) Compounds were tested in a 384-well assay format for their ability to inhibit cellular pERK in Kuramochi (WT KRAS), MIA-PaCa-2 (KRAS-G12C), ASPC-1 (KRAS G12D), and NCI-H441 (KRAS-G12V) cell-lines. Compounds were serially diluted (1:3) in DMSO. On day −1, 80 μL of cells were plated per well in the 384 well tissue-culture plates (Greiner: Cat #781080) to seed 5000 cells per wells of AsPC-1 or 7500 cells of MIA-PaCa-2, NCI-H441, and Kuramochi cell lines in RPMI (Corning: Cat #10-040-CM) with 10% fetal bovine serum (FBS) (HyClone: Cat #SH30071-03) and 1× penicillin-streptomycin-glutamate (PSG) (Corning: Cat #30-009-CI) for […] and Kuramochi cell lines and DMEM (Corning: Cat #15-018-CM) with 10% FBS and 1×PSG for MIA-PaCa-2 cell line. The plates were then incubated overnight at 37° C. and 5% CO2. On day 0, 400 nL of compound/well was added into the cell plates and mixed 5 times by pipetting using a Beckmann Biomek FX. The cell plates were then incubated for 2 hours at 37° C. and 5% CO2. HTRF Advanced Phospho-ERK1/2 (THR202/TYR204) Detection Kits (PerkinElmer: Cat #64AERPEG) were used to prepare the lysis and detection solution according to manufacturer protocol. Following the 2 hour incubation, 70 μL of medium was aspirated from the plates and 10 uL of lysis and detection solution was added to the plates using a Biotek EL406 washer and dispenser. Plates were sealed and stored overnight at room temperature. HTRF ratio (665 nm/615 nm) was read by Envision multimode reader (PerkinElmer) the next day. The TR-FRET ratios were normalized to a positive (saturating concentration of known inhibitor) and negative (DMSO) control and plotted against the log of compound concentration.

[2] = system: cellular pERK in Kuramochi (WT KRAS) cells; experiment: Cell based pERK assay, Kuramochi; conditions: Kuramochi (WT KRAS), 2 hours incubation, HTRF phospho-ERK1/2; read-out: Kuramochi pERK EC50
Description: as §1

[3] = system: cellular pERK in ASPC-1 (KRAS G12D) cells; experiment: Cell based pERK assay, ASPC-1; conditions: Homo sapiens, ASPC1; ASPC-1 (KRAS G12D), 2 hours incubation, HTRF phospho-ERK1/2; read-out: AsPC1 pERK EC50
Description: as §1

[4] = system: cellular pERK in NCI-H441 (KRAS-G12V) cells; experiment: Cell based pERK assay, NCI-H441; conditions: Homo sapiens; NCI-H441 (KRAS-G12V), 2 hours incubation, HTRF phospho-ERK1/2; read-out: H441 PERK EC50
Description: as §1

Row | SMILES | pEC50 [1] | pEC50 [2] | pEC50 [3] | pEC50 [4]
1 | C#Cc1c(F)ccc2cc(O)cc(-c3nc4c5c(nc(OC[C@@]67CCCN6C[C@H](F)C7)nc5c3F)N3C[C@@]5(F)CC[C@H](N5)[C@H]3CC4)c12 [Example 1-1, 4-((5aR,6S,9S)-1,9-difluoro-12-(((2R,7aS)-2-fluorotetrahydro-1H-pyrrolizin-7a(5H)-yl)methoxy)-4,5,5a,6,7,8,9,10-octahydro-3,10a,11,13,14-pentaaza-6,9-methanonaphtho[1,8-ab]heptalen-2-yl)-5-ethynyl-6-fluoronaphthalen-2-ol] | 8.49 | 8.57 | 7.42 | 8.31
2 | C#Cc1c(F)ccc2cc(N)cc(-c3nc4c5c(nc(OC[C@@]67CCCN6C[C@H](F)C7)nc5c3F)N3C[C@@]5(F)CC[C@](F)(N5)[C@H]3CCC4)c12 [Example 4-2, 5-ethynyl-6-fluoro-4-((6aR,7R,10S)-1,7,10-trifluoro-13-(((2R,7aS)-2-fluorotetrahydro-1H-pyrrolizin-7a(5H)-yl)methoxy)-5,6,6a,7,8,9,10,11-octahydro-4H-3,11a,12,14,15-pentaaza-7,10-methanocyclohepta[4,5]cycloocta[1,2,3-de]naphthalen-2-yl)naphthalen-2-amine] | – | 8.54 | 7.70 | 8.52
3 | C#Cc1c(F)ccc2cc(O)cc(-c3nc4c5c(nc(OCC67CCCN6CCC7)nc5c3F)N3C[C@@]5(F)CC[C@](F)(N5)[C@H]3CCC4)c12 [Example 4-5, 5-ethynyl-6-fluoro-4-((6aR,7R,10S)-1,7,10-trifluoro-13-((tetrahydro-1H-pyrrolizin-7a(5H)-yl)methoxy)-5,6,6a,7,8,9,10,11-octahydro-4H-3,11a,12,14,15-pentaaza-7,10-methanocyclohepta[4,5]cycloocta[1,2,3-de]naphthalen-2-yl)naphthalen-2-ol] | 9.40 | 8.19 | 8.00 | –
4 | N#Cc1c(F)ccc2cc(O)cc(-c3nc4c5c(nc(OCC67CCCN6CCC7)nc5c3F)N3C[C@@]5(F)CC[C@](F)(N5)[C@H]3CCC4)c12 [Example 4-9, 2-fluoro-6-hydroxy-8-((6aR,7R,10S)-1,7,10-trifluoro-13-((tetrahydro-1H-pyrrolizin-7a(5H)-yl)methoxy)-5,6,6a,7,8,9,10,11-octahydro-4H-3,11a,12,14,15-pentaaza-7,10-methanocyclohepta[4,5]cycloocta[1,2,3-de]naphthalen-2-yl)-1-naphthonitrile] | 8.22 | 7.88 | 6.49 | –
5 | C#Cc1c(F)ccc2c(F)c(N)cc(-c3nc4c5c(nc(OCC67CCCN6CCC7)nc5c3F)N3C[C@@]5(F)CC[C@](F)(N5)[C@H]3CCC4)c12 [Example 4-18, 5-ethynyl-1,6-difluoro-4-((6aR,7R,10S)-1,7,10-trifluoro-13-((tetrahydro-1H-pyrrolizin-7a(5H)-yl)methoxy)-5,6,6a,7,8,9,10,11-octahydro-4H-3,11a,12,14,15-pentaaza-7,10-methanocyclohepta[4,5]cycloocta[1,2,3-de]naphthalen-2-yl)naphthalen-2-amine] | 7.65 | 7.88 | 6.41 | –
6 | Oc1cc(-c2nc3c4c(nc(OCC56CCCN5CCC6)nc4c2F)N2C[C@@]4(F)CC[C@](F)(N4)[C@H]2CCC3)c2c(F)c(F)ccc2c1 [Example 4-22, 5,6-difluoro-4-[(4S,7R,8R)-4,7,15-trifluoro-18-(1,2,3,5,6,7-hexahydropyrrolizin-8-ylmethoxy)-2,13,17,19,21-pentazapentacyclo[10.7.1.14,7.02,8.016,20]henicosa-1(19),12(20),13,15,17-pentaen-14-yl]naphthalen-2-ol] | 8.69 | 8.39 | 7.08 | –
7 | C#Cc1c(F)ccc2cccc(-c3nc4c5c(nc(OCC67CCCN6CCC7)nc5c3F)N3C[C@@]5(F)CC[C@](F)(N5)[C@@H]3[C@@H](C)C4)c12 [Example 4-31, (5S,5aS,6R,9S)-2-(8-ethynyl-7-fluoronaphthalen-1-yl)-1,6,9-trifluoro-5-methyl-12-((tetrahydro-1H-pyrrolizin-7a(5H)-yl)methoxy)-4,5,5a,6,7,8,9,10-octahydro-3,10a,11,13,14-pentaaza-6,9-methanonaphtho[1,8-ab]heptalene] | 8.66 | 8.86 | 7.42 | –
8 | C#Cc1c(F)c(F)cc2cc(O)cc(-c3nc4c5c(nc(OCC67CCCN6CCC7)nc5c3F)N3C[C@@]5(F)CC[C@](F)(N5)[C@@H]3[C@@H](C)C4)c12 [Example 4-33, 5-ethynyl-6,7-difluoro-4-((5S,5aS,6R,9S)-1,6,9-trifluoro-5-methyl-12-((tetrahydro-1H-pyrrolizin-7a(5H)-yl)methoxy)-4,5,5a,6,7,8,9,10-octahydro-3,10a,11,13,14-pentaaza-6,9-methanonaphtho[1,8-ab]heptalen-2-yl)naphthalen-2-ol] | 9.54 | 8.06 | 7.91 | –
9 | C#Cc1c(F)ccc2cc(N)cc(-c3nc4c5c(nc(OC[C@@]67CCCN6C[C@H](F)C7)nc5c3F)N3C[C@@]5(F)CC[C@H](N5)[C@@H]3[C@@H](C)[C@H]4C)c12 [Example 4-37, 4-((4R,5S,5aS,6S,9S)-1,9-difluoro-12-(((2R,7aS)-2-fluorotetrahydro-1H-pyrrolizin-7a(5H)-yl)methoxy)-4,5-dimethyl-4,5,5a,6,7,8,9,10-octahydro-3,10a,11,13,14-pentaaza-6,9-methanonaphtho[1,8-ab]heptalen-2-yl)-5-ethynyl-6-fluoronaphthalen-2-amine] | 9.82 | – | 8.33 | 9.32
10 | Nc1cc(-c2nc3c4c(nc(OCC56CCCN5CCC6)nc4c2F)N2C[C@@]4(F)CC[C@](F)(N4)[C@H]2CCC3)c2c(Cl)c(F)ccc2c1 [Example 5-2, 5-chloro-6-fluoro-4-((6aR,7R,10S)-1,7,10-trifluoro-13-((tetrahydro-1H-pyrrolizin-7a(5H)-yl)methoxy)-5,6,6a,7,8,9,10,11-octahydro-4H-3,11a,12,14,15-pentaaza-7,10-methanocyclohepta[4,5]cycloocta[1,2,3-de]naphthalen-2-yl)naphthalen-2-amine] | 7.75 | 8.36 | 6.47 | –
11 | CCc1c(F)ccc2cc(N)cc(-c3nc4c5c(nc(OCC67CCCN6CCC7)nc5c3F)N3C[C@@]5(F)CC[C@](F)(N5)[C@H]3CCC4)c12 [Example 6-2, 5-ethyl-6-fluoro-4-((6aR,7R,10S)-1,7,10-trifluoro-13-((tetrahydro-1H-pyrrolizin-7a(5H)-yl)methoxy)-5,6,6a,7,8,9,10,11-octahydro-4H-3,11a,12,14,15-pentaaza-7,10-methanocyclohepta[4,5]cycloocta[1,2,3-de]naphthalen-2-yl)naphthalen-2-amine] | 7.65 | 8.19 | 6.34 | –
12 | CCc1c(F)ccc2cc(O)cc(-c3nc4c5c(nc(OCC67CCCN6CCC7)nc5c3F)N3C[C@@]5(F)CC[C@](F)(N5)[C@@H]3[C@@H](C)C4)c12 [Example 6-3, 5-ethyl-6-fluoro-4-((8S,8aS,9R,12S)-4,9,12-trifluoro-8-methyl-2-((tetrahydro-1H-pyrrolizin-7a(5H)-yl)methoxy)-7,8,8a,9,10,11,12,13-octahydro-1,3,6,13a,14-pentaaza-9,12-methanonaphtho[1,8-ab]heptalen-5-yl)naphthalen-2-ol] | 9.29 | 8.18 | 7.70 | –
13 | CCc1c(F)ccc2cc(N)cc(-c3nc4c5c(nc(OCC67CCCN6CCC7)nc5c3F)N3C[C@@]5(F)CC[C@](F)(N5)[C@@H]3[C@@H](C)C4)c12 [Example 6-4, 5-ethyl-6-fluoro-4-((8S,8aS,9R,12S)-4,9,12-trifluoro-8-methyl-2-((tetrahydro-1H-pyrrolizin-7a(5H)-yl)methoxy)-7,8,8a,9,10,11,12,13-octahydro-1,3,6,13a,14-pentaaza-9,12-methanonaphtho[1,8-ab]heptalen-5-yl)naphthalen-2-amine] | 7.89 | 8.08 | 6.70 | –
